Reference: patent US8097440B1, “Engineered microorganisms capable of producing target compounds under anaerobic conditions” (Gevo, Inc., priority 2008, dated 2012)
Numbering of substitutions follows the chain as printed.

How the values were obtained:
[1] = target: T1, E. coli KARI Ec_IlvC variant Ec_IlvC^Q110V-his6 (Q110V), SEQ ID NO: 23 (Escherichia coli, UniProt P05793, Q110V); assay: KARI cuvette assay, purified Ec_IlvC^Q110V-his6; format: biochemical; conditions: relative to Ec_IlvC^his6 with NADPH
T1 sequence (P05793 with tags, fused parts or gaps Q110V): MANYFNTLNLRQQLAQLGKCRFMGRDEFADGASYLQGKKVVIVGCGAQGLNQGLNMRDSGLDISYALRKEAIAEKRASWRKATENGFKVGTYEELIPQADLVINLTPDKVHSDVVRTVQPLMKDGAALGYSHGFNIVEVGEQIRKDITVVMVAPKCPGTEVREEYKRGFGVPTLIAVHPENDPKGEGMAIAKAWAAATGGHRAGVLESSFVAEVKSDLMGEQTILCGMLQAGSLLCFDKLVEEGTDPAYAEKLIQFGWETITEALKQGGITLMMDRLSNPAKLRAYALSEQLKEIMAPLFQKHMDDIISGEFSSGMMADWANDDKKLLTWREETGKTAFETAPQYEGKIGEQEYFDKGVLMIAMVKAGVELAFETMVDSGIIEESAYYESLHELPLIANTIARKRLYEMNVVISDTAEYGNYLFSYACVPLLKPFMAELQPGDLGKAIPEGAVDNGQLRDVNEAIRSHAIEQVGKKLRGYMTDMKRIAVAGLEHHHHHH
Experimental: (§1) KARI cuvette assay: KARI activity was assayed kinetically by monitoring the decrease in NAD(P)H concentration by measuring the absorbance at 340 nm. A reaction buffer was prepared containing 250 mM potassium phosphate pH 7, 1 mM DTT and 10 mM MgCl2. Cell pellets were resuspended (0.25 g wet weight/mL buffer) in 250 mM potassium phosphate (KPi) buffer containing 1 mM DTT and 10 mM MgCl2. The resuspended cells were lysed by sonication for 1 min with a 50% duty cycle and pelleted at 11000×g and 4° C. for 15 min. A reaction mixture consisting of 910 μl reaction buffer, 50 μl acetolactate, and 20 μl lysate was prepared in a cuvette. The reaction was initiated by addition of 20 μL of 10 mM NAD(P)H. A substrate free control was conducted using reaction buffer without the addition of acetolactate.
Purification of KARI: Cell pellets used for purification were resuspended in purification buffer A (20 mM Tris, 20 mM imidazol, 100 mM NaCl, 10 mM MgCl2, pH 7.4). KARI was purified by IMAC (Immobilized metal affinity chromatography) over a 1 ml Histrap High Performance (histrap HP) column pre-charged with Nickel (GE Healthcare) using an Akta FPLC system (GE Healthcare). […]

[2] = target: T2, Escherichia coli KARI (ketol-acid reductoisomerase) Ec_IlvC^his6, wild type IlvC (SEQ ID NO: 13) with his6-tag, SEQ ID NO: 15 (Escherichia coli, UniProt P05793); assay: KARI cuvette assay, purified Ec_IlvC^his6 (parent / wild type); format: biochemical, E. coli; conditions: relative to Ec_IlvC^his6 with NADPH
T2 sequence (P05793 with tags, fused parts or gaps): T1 sequence (P05793 with tags, fused parts or gaps Q110V) with V110Q
Experimental: as §1, with “The reaction was initiated by addition of 20 μL of 10 mM NAD(P)H. A substrate free control was conducted using reaction buffer without the addition of acetolactate.” left out
Only 20% of the enzymes of the recombination library were active on NADH. After screening 1,000 clones using the NADH depletion assay at 340 nm, 26 KARI variants were selected for a rescreen by the high-throughput assay described in Example 14 and eight thereof were expressed in 25 ml LBamp medium in shake flasks according to the protocol for cell growth and protein expression in shake flasks as described in Example 14, purified according to the protocol for purification of KARI enzymes as described in Example 14, and NAD(P)H depletion at 340 nm was measured again. […] The KM values of variants Ec_llvC^2H10-his6 and Ec_llvC^6E6-his6 were measured and the catalytic efficiencies were calculated.

NC(=O)C1=CN([C@@H]2O[C@H](COP(=O)(O)OP(=O)(O)OC[C@H]3O[C@@H](n4cnc5c(N)ncnc54)[C@H](O)[C@@H]3O)[C@@H](O)[C@H]2O)C=CC1 [NADH, nicotinamide adenine dinucleotide]
(kcat/KM with NADH)/(kcat/KM of Ec_IlvC^his6 with NADPH) [1]: 28% | (kcat/KM with NADH)/(kcat/KM of Ec_IlvC^his6 with NADPH) [2]: 1%
